For series [1], the system named is epithelial cells isolated from the small intestine of a rat. The series can be described thus: Degradation of penem in epithelial cells isolated from rat small intestine (free acid of penem remaining by HPLC, with/without cilastatin). Conditions: cilastatin 35 μg/ml; 37° C., 60 minutes. In kind it is in vitro ADME. As to the method: Degradation of penems in epithelial cells isolated from the small intestine of a rat was investigated by the following method. Namely, the epithelial cells were isolated from the small intestine of the rat by the citric acid method reported in The Journal of Biological Chemistry, 248, […] (1973).
After the resultant solution was incubated at 37° C. for 60 minutes, the free acid of the penem was measured by high performance liquid chromatography (HPLC).

Series [2] in a line: in vivo. Further details: species or system Sprague-Dawley male rats. Conditions: rat, intravenous penem; at each cilastatin dosage. On the procedure: The blood was collected during the period of from 0.1 to 1.5 hours after the administration. The concentrations of the free acid of the penem in plasma samples were measured by high performance liquid chromatography (HPLC) to determine the area under the plasma concentration:time curve (AUC).

As to `CC1(C)C[C@@H]1C(=O)N/C(=C\CCCCSC[C@H](N)C(=O)O)C(=O)O` [cilastatin, reference compound], the “Degradation of the penem carboxylate by addition of cilastatin” value in series [1] is given as “inhibited”. Moreover, the “Area under the plasma concentration:time curve upon intravenous administration, compared with single administration” value in series [2] was “not different”.

The record behind these values is patent US5354748A, “Oral antibacterial compositions and method for the improvement of gastrointestinal absorption of penem or carbapenem antibiotics” (Suntory Limited, priority 1991, dated 1994).
